In patent publication US11679107B2 (Eisai R&D Management Co., Ltd., priority 2018, dated 2023):
Read-outs that look alike come from different tables or passages of the source.

Columns and labels:
[1] = target: T1, SF3b complexes (Homo sapiens, UniProt O75533+Q7RTV0); assay: Scintillation proximity assay (SPA) with [3H]-labelled pladienolide probe; type: binding; conditions: SF3B1 (WT); geometric mean; read-out: SPA-ATS GMean IC50 (nM) SF3B1 (WT)
T1 construct: endogenous in cells; host or cells: Nuclear extracts; A HeLa S3 extract preparation is described for the in vitro splicing assay
How it was run: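 SF3b complexes captured from nuclear extracts on anti-SF3B1 antibody SPA beads; test compounds pre-incubated 30 min before 2.5 nM [3H]-pladienolide probe added, then 30 min incubation. Bound probe read by scintillation; values from non-linear regression of concentration–response curves.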

[2] = tested on: Ad2 variant pre-mRNAs spliced in HeLa S3 nuclear extracts; assay: In vitro splicing assay (IVS), RT-qPCR of spliced product; type: biochemical; conditions: for IC50: geometric mean; for Ratio Ad2.1/2.2: ratio of IVS IC50 Ad2.1 to Ad2.2
How it was run: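 Ad2 variant pre-mRNA (2 ng) with FTZΔi control RNA in HeLa S3 nuclear extract (8 μg) was pre-incubated with compound or DMSO for 15 min at 30 °C. Splicing ran 90 min at 30 °C after adding 0.5 mM ATP, creatine phosphate and MgCl2. Spliced product was quantified by TaqMan RT-qPCR, normalized to DMSO, and curve-fitted.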

[3] = tested on: NCI-H1568 cells (high MCL1); assay: Cell proliferation and viability, CellTiter-Glo, 72 hours; type: cell-based; conditions: NCIH1568.1; for CTGlo-ATS Mean MinResponse % 72 h NCIH1568.1: -100% = cidal, 0% = static, 100% = uninhibited growth; for GI50: geometric mean
How it was run: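 Cells grown in RPMI-1640 with 10% FBS (Panc line with added insulin and FBS to 15%) were exposed to an 11-point half-log dilution series, typically 10 μM-100 pM, at 0.1% final DMSO. After incubation at 37° C, 5% CO2, ATP content was measured by luminescence and normalized to a time-zero plate and DMSO wells.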

[4] = Ad2.1 pre-mRNA substrate, read-out: qPCR-IVS-ATS GMean IC50 (nM) Ad2.1
[5] = Ad2.2 pre-mRNA substrate, read-out: qPCR-IVS-ATS GMean IC50 (nM) Ad2.2
[6] = NCI-H1568, 72 h, read-out: CTGlo-ATS GMean GI50 (nM) 72 h NCIH1568.1, 72 h
[7] = NCI-H1568, read-out: CTGlo-ATS GMean GI50 (nM) 72 h NCIH1568.1, 72 h

SMILES | IC50 [1] | IC50 [2, 4] | IC50 [2, 5] | Ratio Ad2.1/2.2 [2] | CTGlo-ATS Mean MinResponse % 72 h NCIH1568.1 ([3]; 72 h) | GI50 [3, 6] | GI50 [3, 7]
C/C(=C\c1cc(F)cc(N2CCN(C(=O)Cn3cccn3)CC2)c1)[C@H]1OC(=O)C[C@H](O)CC[C@H](C)[C@@H](OC(=O)NCCN(C)C)/C=C/[C@@H]1C [Compound 224, [(2S,3S,4E,6R,7S,10R)-2-[(E)-1-[3-fluoro-5-[4-(2-pyrazol-1-ylacetyl)piperazin-1-yl]phenyl]prop-1-en-2-yl]-10-hydroxy-3,7-dimethyl-12-oxo-1-oxacyclododec-4-en-6-yl] N-[2-(dimethylamino)ethyl]carbamate] | 3.14 nM | 41.1 nM | 5.88 nM | 6.991 | −61.875% | 16.4 nM | –
C/C(=C\c1cc(F)cc(N2CCN(C(=O)Cn3cccn3)CC2)c1)[C@H]1OC(=O)C[C@H](O)CC[C@H](C)[C@@H](OC(=O)N2CCCN(C)CC2)/C=C/[C@@H]1C [Compound 225, [(2S,3S,4E,6R,7S,10R)-2-[(E)-1-[3-fluoro-5-[4-(2-pyrazol-1-ylacetyl)piperazin-1-yl]phenyl]prop-1-en-2-yl]-10-hydroxy-3,7-dimethyl-12-oxo-1-oxacyclododec-4-en-6-yl] 4-methyl-1,4-diazepane-1-carboxylate] | 18.2 nM | 7.56 nM | 22.4 nM | 0.337 | −73.768% | 11 nM | –
C/C(=C\c1cc(F)cc(N2CCN(C(=O)Cn3cccn3)CC2)c1)[C@H]1OC(=O)C[C@H](O)CC[C@H](C)[C@@H](OC(=O)N2CCNC(=O)C2)/C=C/[C@@H]1C [Compound 230, [(2S,3S,4E,6R,7S,10R)-2-[(E)-1-[3-fluoro-5-[4-(2-pyrazol-1-ylacetyl)piperazin-1-yl]phenyl]prop-1-en-2-yl]-10-hydroxy-3,7-dimethyl-12-oxo-1-oxacyclododec-4-en-6-yl] 3-oxopiperazine-1-carboxylate] | 12.9 nM | 11.7 nM | 10.9 nM | 1.078 | −69.108% | – | 15.9 nM
C/C(=C\c1cc(F)cc(N2CCN(C(=O)Cn3cccn3)CC2)c1)[C@H]1OC(=O)C[C@H](O)CC[C@H](C)[C@@H](OC(=O)N2CC[C@@H](F)C2)/C=C/[C@@H]1C [Compound 231, [(2S,3S,4E,6R,7S,10R)-2-[(E)-1-[3-fluoro-5-[4-(2-pyrazol-1-ylacetyl)piperazin-1-yl]phenyl]prop-1-en-2-yl]-10-hydroxy-3,7-dimethyl-12-oxo-1-oxacyclododec-4-en-6-yl] (3R)-3-fluoropyrrolidine-1-carboxylate] | 26 nM | 513 nM | 5.28 nM | 97.051 | −59.209% | – | 22.7 nM
C/C(=C\c1cc(F)cc(N2CCN(C(=O)Cn3cccn3)CC2)c1)[C@H]1OC(=O)C[C@H](O)CC[C@H](C)[C@@H](OC(=O)N2CCN(C)C(C)(C)C2)/C=C/[C@@H]1C [Compound 232, [(2S,3S,4E,6R,7S,10R)-2-[(E)-1-[3-fluoro-5-[4-(2-pyrazol-1-ylacetyl)piperazin-1-yl]phenyl]prop-1-en-2-yl]-10-hydroxy-3,7-dimethyl-12-oxo-1-oxacyclododec-4-en-6-yl] 3,3,4-trimethylpiperazine-1-carboxylate] | 5.01 nM | 15.3 nM | 9.5 nM | 1.613 | −78.974% | – | 4.67 nM
C/C(=C\c1cc(F)cc(N2CCN(C(=O)Cn3cccn3)CC2)c1)[C@H]1OC(=O)C[C@H](O)CC[C@H](C)[C@@H](OC(=O)N(C)C2CCN(C)CC2)/C=C/[C@@H]1C [Compound 233, [(2S,3S,4E,6R,7S,10R)-2-[(E)-1-[3-fluoro-5-[4-(2-pyrazol-1-ylacetyl)piperazin-1-yl]phenyl]prop-1-en-2-yl]-10-hydroxy-3,7-dimethyl-12-oxo-1-oxacyclododec-4-en-6-yl] N-methyl-N-(1-methylpiperidin-4-yl)carbamate] | 2.46 nM | 5.87 nM | 6.05 nM | 0.971 | −87.288% | – | 1.98 nM
C/C(=C\c1cc(F)cc(N2CCN(C(=O)Cn3cccn3)CC2)c1)[C@H]1OC(=O)C[C@H](O)CC[C@H](C)[C@@H](OC(=O)N2CCN(CCO)CC2)/C=C/[C@@H]1C [Compound 234, [(2S,3S,4E,6R,7S,10R)-2-[(E)-1-[3-fluoro-5-[4-(2-pyrazol-1-ylacetyl)piperazin-1-yl]phenyl]prop-1-en-2-yl]-10-hydroxy-3,7-dimethyl-12-oxo-1-oxacyclododec-4-en-6-yl] 4-(2-hydroxyethyl)piperazine-1-carboxylate] | 3.16 nM | 13.1 nM | 16.5 nM | 0.793 | −81.384% | – | 5.2 nM
C/C(=C\c1cc(F)cc(N2CCN(C(=O)Cn3cccn3)CC2)c1)[C@H]1OC(=O)C[C@H](O)CC[C@H](C)[C@@H](OC(=O)N2CCN(C3CCCCCC3)CC2)/C=C/[C@@H]1C [Compound 236, [(2S,3S,4E,6R,7S,10R)-2-[(E)-1-[3-fluoro-5-[4-(2-pyrazol-1-ylacetyl)piperazin-1-yl]phenyl]prop-1-en-2-yl]-10-hydroxy-3,7-dimethyl-12-oxo-1-oxacyclododec-4-en-6-yl] 4-cycloheptylpiperazine-1-carboxylate] | 84 nM | 49.9 nM | 56.2 nM | 0.889 | −90.096% | – | 9.92 nM
C/C(=C\c1cc(F)cc(N2CCN(C(=O)Cn3cccn3)CC2)c1)[C@H]1OC(=O)C[C@H](O)CC[C@H](C)[C@@H](OC(=O)N2CCN(c3ccncc3)CC2)/C=C/[C@@H]1C [Compound 237, [(2S,3S,4E,6R,7S,10R)-2-[(E)-1-[3-fluoro-5-[4-(2-pyrazol-1-ylacetyl)piperazin-1-yl]phenyl]prop-1-en-2-yl]-10-hydroxy-3,7-dimethyl-12-oxo-1-oxacyclododec-4-en-6-yl] 4-pyridin-4-ylpiperazine-1-carboxylate] | 8.37 nM | 18.6 nM | 9.33 nM | 1.989 | −78.619% | 12 nM | –
C/C(=C\c1cc(F)cc(N2CCN(C(=O)Cn3cccn3)CC2)c1)[C@H]1OC(=O)C[C@H](O)CC[C@H](C)[C@@H](OC(=O)N2CCN(C3CCCCC3)CC2)/C=C/[C@@H]1C [Compound 238, [(2S,3S,4E,6R,7S,10R)-2-[(E)-1-[3-fluoro-5-[4-(2-pyrazol-1-ylacetyl)piperazin-1-yl]phenyl]prop-1-en-2-yl]-10-hydroxy-3,7-dimethyl-12-oxo-1-oxacyclododec-4-en-6-yl] 4-cyclohexylpiperazine-1-carboxylate] | 18.1 nM | 32.2 nM | 68.1 nM | 0.473 | −88.447% | 5.79 nM | –
